According to PMC7204994 (Frontiers in Pharmacology, 2020):

Tests used:
LIMK1 [1] = molecular target: T1, LIMK1 (Homo sapiens, UniProt P53667); test: in vitro GST-cofilin phosphorylation by recombinant LIMK1, Western blot, […] compound; type: biochemical; set-up: recombinant human LIMK1 (Millipore #14-656)
LIMK1 [2] = molecular target: T1, LIMK1; test: cell-free LIMK1 biochemical assay; conditions: cited from earlier work

T1 sequence (P53667 whole entry): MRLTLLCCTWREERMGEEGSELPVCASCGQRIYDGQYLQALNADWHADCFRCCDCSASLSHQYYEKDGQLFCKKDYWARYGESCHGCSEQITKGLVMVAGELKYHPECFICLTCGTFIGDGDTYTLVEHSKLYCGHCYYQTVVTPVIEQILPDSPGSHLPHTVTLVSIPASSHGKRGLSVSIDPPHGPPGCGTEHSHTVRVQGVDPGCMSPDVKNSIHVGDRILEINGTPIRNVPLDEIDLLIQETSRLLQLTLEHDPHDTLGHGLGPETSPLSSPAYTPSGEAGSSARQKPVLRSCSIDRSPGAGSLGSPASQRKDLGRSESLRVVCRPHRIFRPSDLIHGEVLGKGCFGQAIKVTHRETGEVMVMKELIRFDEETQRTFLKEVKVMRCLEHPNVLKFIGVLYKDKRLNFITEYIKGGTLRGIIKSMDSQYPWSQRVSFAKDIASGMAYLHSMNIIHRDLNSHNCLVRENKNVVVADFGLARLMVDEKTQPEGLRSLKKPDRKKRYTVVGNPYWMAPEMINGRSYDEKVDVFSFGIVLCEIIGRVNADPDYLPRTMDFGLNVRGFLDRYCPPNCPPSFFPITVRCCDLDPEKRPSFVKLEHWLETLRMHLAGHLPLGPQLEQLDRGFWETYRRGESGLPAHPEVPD

| Compound | in vitro GST-cofilin phosphorylation by recombinant LIMK1, Western blot, 10 μM c (LIMK1 [1]) | IC50 (LIMK1 [2]) [nM] |
| --- | --- | --- |
| Cn1cc(-c2[nH]c3cc(NC(=O)C(N)C4CCCCC4)cc4c3c2C=NNC4=O)cn1 (centres unmarked) [PF0477736] | showed that PF0477736 is indeed able to directly inhibit LIMK | – |
| Cc1c[nH]c2ncnc(-c3ccc(NC(=O)N(CCN)c4ccc(Cl)cc4)c(F)c3)c12 [SR10905, 1-(2-aminoethyl)-1-(4-chlorophenyl)-3-(2-fluoro-4-(5-methyl-7H-pyrrolo[2,3-d]pyrimidin-4-yl)phenyl)urea] | – | 15 |
